Results on four molecules are retold here after publication PMC10981695, “The thylakoid proton antiporter KEA3 regulates photosynthesis in response to the chloroplast energy status” (Nature Communications, 2024).

Experiment [1] has as its target T1, RCT (regulatory C-terminus of KEA3, KEA3 AA495-776) (Arabidopsis thaliana, UniProt Q9M0Z3).
T1 sequence (Q9M0Z3 495-776): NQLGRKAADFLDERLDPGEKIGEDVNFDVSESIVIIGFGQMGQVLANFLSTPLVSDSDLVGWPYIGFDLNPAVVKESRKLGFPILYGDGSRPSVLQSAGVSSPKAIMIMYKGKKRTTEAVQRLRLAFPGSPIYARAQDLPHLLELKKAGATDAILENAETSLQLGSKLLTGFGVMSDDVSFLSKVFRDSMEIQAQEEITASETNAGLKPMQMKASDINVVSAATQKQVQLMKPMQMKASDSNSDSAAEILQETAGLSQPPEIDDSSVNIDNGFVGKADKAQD
The experiment is described as follows: differential scanning fluorimetry (nanoDSF, intrinsic fluorescence). The settings on record: pH 8.0, PBS; 50 and 500 µM ligand. It counts as binding.

Experiment [2] concerns the target T1, RCT (regulatory C-terminus of KEA3, KEA3 AA495-776). The experiment is described as follows: temperature-related intensity change (TRIC), RED-tris-NTA labelled His-tag, one-site fit. The class given is binding. From the text: temperature-related intensity change (TRIC), RED-tris-NTA labelled His-tag, one-site fit on RCT (regulatory C-terminus of KEA3, KEA3 AA495-776)

For another experiment, the target named is T2, KEA3 (Arabidopsis thaliana, UniProt Q9M0Z3).
T2 construct: native full-length KEA3 in detergent-solubilized wild-type thylakoid membranes, detected with specific KEA3 antibody
T2 sequence (Q9M0Z3 73-776): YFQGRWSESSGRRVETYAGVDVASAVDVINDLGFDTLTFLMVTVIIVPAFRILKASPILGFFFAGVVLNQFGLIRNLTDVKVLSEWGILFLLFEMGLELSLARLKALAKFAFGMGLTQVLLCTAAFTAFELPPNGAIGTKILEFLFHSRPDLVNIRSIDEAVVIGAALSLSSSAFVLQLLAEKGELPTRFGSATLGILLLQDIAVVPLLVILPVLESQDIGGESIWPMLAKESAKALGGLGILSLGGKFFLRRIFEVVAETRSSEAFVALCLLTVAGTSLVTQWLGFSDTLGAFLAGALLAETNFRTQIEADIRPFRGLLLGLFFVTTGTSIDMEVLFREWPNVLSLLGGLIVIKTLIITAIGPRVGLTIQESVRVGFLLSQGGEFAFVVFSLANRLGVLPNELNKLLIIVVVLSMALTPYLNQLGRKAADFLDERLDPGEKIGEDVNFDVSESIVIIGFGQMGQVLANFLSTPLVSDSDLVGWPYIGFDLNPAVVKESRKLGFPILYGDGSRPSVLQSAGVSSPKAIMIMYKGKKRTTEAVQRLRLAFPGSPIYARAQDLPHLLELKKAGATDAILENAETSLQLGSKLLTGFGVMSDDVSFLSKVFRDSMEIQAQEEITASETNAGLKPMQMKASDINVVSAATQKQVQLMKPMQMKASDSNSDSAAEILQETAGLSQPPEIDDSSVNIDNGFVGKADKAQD
Description: affinity pull-down with ATP-linked agarose beads, immunoblot. The class given is biochemical. The settings on record: solubilized thylakoids; ATP immobilised via linker.

Each structure is given as a SMILES string.

The term Kd denotes a measure of binding affinity in units of concentration. As for `Nc1ncnc2c1ncn2[C@@H]1O[C@H](COP(=O)(O)OP(=O)(O)O)[C@@H](O)[C@H]1O` [ADP], the ΔTM entry in experiment [1] is “Addition of either ADP or ATP yielded a concentration-dependent increase in the ΔTM of RCT”. Binding in experiment [2] was characterised by a dissociation constant (Kd) of 51 µM.

Turning to `NC(=O)c1ccc[n+]([C@@H]2O[C@H](COP(=O)(O)OP(=O)(O)OC[C@H]3O[C@@H](n4cnc5c(N)ncnc54)[C@H](OP(=O)(O)O)[C@@H]3O)[C@@H](O)[C@H]2O)c1` [NADP^+], the Kd in experiment [2] amounted to 8 µM.

In the case of `NC(=O)C1=CN([C@@H]2O[C@H](COP(=O)(O)OP(=O)(O)OC[C@H]3O[C@@H](n4cnc5c(N)ncnc54)[C@H](OP(=O)(O)O)[C@@H]3O)[C@@H](O)[C@H]2O)C=CC1` [NADPH], the dissociation constant (Kd) in experiment [2] worked out at 38 µM.

On to `Nc1ncnc2c1ncn2[C@@H]1O[C@H](COP(=O)(O)OP(=O)(O)OP(=O)(O)O)[C@@H](O)[C@H]1O` [ATP], for which the “affinity pull-down with ATP-linked agarose beads, immunoblot” value at KEA3 is on record as “KEA3 was detected on three of four different types of ATP-linked agarose beads”. Also, the ΔTM entry in experiment [1] is listed as “Addition of either ADP or ATP yielded a concentration-dependent increase in the ΔTM of RCT”. The same molecule showed a Kd in experiment [2] of 42 µM.
